Test results as given in patent publication US7968725B2, “Pyridinyl modulators of γ-secretase” (Janssen Pharmaceutica N.V., priority 2008, dated 2011).

Molecular target: T1, γ-secretase (Homo sapiens, UniProt P49768)
T1 construct: endogenous in cells; host or cells: SKNBE2 cells carrying APP 695 wild type
Experiment: Screening for γ-secretase-modulating activity in SKNBE2 cells carrying the APP 695-wild type (assay per Citron et al 1997)
Type: cell-based
Details: SKNBE2 cells carrying APP 695-wild type
Experimental: Screening of the Compounds of the Invention for γ-Secretase-Modulating Activity
Screening was carried out using SKNBE2 cells carrying the APP 695-wild type, grown in DMEM/NUT-mix F12 (HAM) provided by Gibco (cat no. 31330-38) containing 5% Serum/Fe supplemented with 1% non-essential amino acids.
Cells were grown to near confluency.
The screening was performed using the assay as described in Citron et al (1997) Nature Medicine 3: 67.

EC50 [nM] | inhibition at 1 µM [%] | Structure (SMILES)
640 | – | CC(C)CC(C(=O)O)c1cc(-c2ccc(C(F)(F)F)cc2)nc(N(CCC2CCCCC2)c2ccc(C(F)(F)F)cc2)c1 (stereo not drawn) [Example 44, 2-[2-[(2-Cyclohexyl-ethyl)-(4-trifluoromethyl-phenyl)-amino]-6-(4-trifluoromethyl-phenyl)-pyridin-4-yl]-4-methyl-pentanoic acid]
– | 34 | CC(C)CC(C(=O)O)c1cc(-c2ccc(C(F)(F)F)cc2)nc(-c2ccc3ccccc3c2)c1 (stereo not drawn) [Example 14, 4-Methyl-2-[2-naphthalen-2-yl-6-(4-trifluoromethyl-phenyl)-pyridin-4-yl]-pentanoic acid]
– | 20 | CC(C)CC(C(=O)O)c1cc(-c2ccc(C(F)(F)F)cc2)nc(-c2ccc3c(c2)OCO3)c1 (stereo not drawn) [Example 33, 2-[2-Benzo[1,3]dioxol-5-yl-6-(4-trifluoromethyl-phenyl)-pyridin-4-yl]-4-methyl-pentanoic acid]
– | 2 | CC(C)CC(C(=O)O)c1cc(-c2ccc(C(F)(F)F)cc2)nc(-c2c(F)cccc2F)c1 (stereo not drawn) [Example 26, 2-[2-(2,6-Difluoro-phenyl)-6-(4-trifluoromethyl-phenyl)-pyridin-4-yl]-4-methyl-pentanoic acid]
– | 0 | C=C(C)CC(C(=O)O)c1cc(-c2ccc(C(F)(F)F)cc2)nc(-c2cc3ccccc3s2)c1 (stereo not drawn) [Example 28, 2-[2-Benzo[b]thiophen-2-yl-6-(4-trifluoromethyl-phenyl)-pyridin-4-yl]-4-methyl-pent-4-enoic acid]
– | 53 | CC(C)CC(C(=O)O)c1cc(-c2ccc(C(F)(F)F)cc2)nc(-c2cccc(-c3ccccc3)c2)c1 (stereo not drawn) [Example 35, 2-[2-Biphenyl-3-yl-6-(4-trifluoromethyl-phenyl)-pyridin-4-yl]-4-methyl-pentanoic acid]
200 | – | CC(C)CC(C(=O)O)c1cc(-c2ccc(C(F)(F)F)cc2)nc(-c2cc(F)cc(F)c2)c1 (stereo not drawn) [Example 10, 2-[2-(3,5-Difluoro-phenyl)-6-(4-trifluoromethyl-phenyl)-pyridin-4-yl]-4-methyl-pentanoic acid]
– | 49 | CC(C)CC(C(=O)O)c1cc(-c2ccc(-c3ccccc3)cc2)nc(-c2ccc(C(F)(F)F)cc2)c1 (stereo not drawn) [Example 13, 2-[2-Biphenyl-4-yl-6-(4-trifluoromethyl-phenyl)-pyridin-4-yl]-4-methyl-pentanoic acid]
– | 7 | C=C(C)CC(C(=O)O)c1cc(-c2ccc(C)cc2)nc(-c2ccc(C(F)(F)F)cc2)c1 (stereo not drawn) [Example 32, 4-Methyl-2-[2-p-tolyl-6-(4-trifluoromethyl-phenyl)-pyridin-4-yl]-pent-4-enoic acid]
– | 18 | CC(C)CC(C(=O)O)c1cc(-c2ccc(C(F)(F)F)cc2)nc(-c2ccc(S(C)(=O)=O)cc2)c1 (stereo not drawn) [Example 39, 2-[2-(4-Methanesulfonyl-phenyl)-6-(4-trifluoromethyl-phenyl)-pyridin-4-yl]-4-methyl-pentanoic acid]
– | 20 | CC(C)CC(C(=O)O)c1cc(-c2ccc(C(F)(F)F)cc2)nc(N(CCN2CCCCC2)c2ccc(C(F)(F)F)cc2)c1 (stereo not drawn) [Example 45, 4-Methyl-2-[2-[(2-piperidin-1-yl-ethyl)-(4-trifluoromethyl-phenyl)-amino]-6-(4-trifluoromethyl-phenyl)-pyridin-4-yl]-pentanoic acid]
– | 8 | CC(C)CC(C(=O)O)c1cc(-c2ccccc2)nc(-c2ccc(C(F)(F)F)cc2)c1 (stereo not drawn) [Example 38, 4-Methyl-2-[2-phenyl-6-(4-trifluoromethyl-phenyl)-pyridin-4-yl]-pentanoic acid]
1290 | – | CC(C)CCN(c1ccc(C(C)(C)C)cc1)c1cc(CC(=O)O)cc(-c2ccc(C(F)(F)F)cc2)n1 [Example 47, [2-[(4-tert-Butyl-phenyl)-(3-methyl-butyl)-amino]-6-(4-trifluoromethyl-phenyl)-pyridin-4-yl]-acetic acid]
– | 5 | CC(C)CC(C(=O)O)c1cc(-c2ccc(C(F)(F)F)cc2)nc(-c2ccc(F)cc2F)c1 (stereo not drawn) [Example 22, 2-[2-(2,4-Difluoro-phenyl)-6-(4-trifluoromethyl-phenyl)-pyridin-4-yl]-4-methyl-pentanoic acid]
– | 56 | O=C(O)Cc1cc(-c2ccc(C(F)(F)F)cc2)nc(N(CCC2CCCCC2)c2ccc(C(F)(F)F)cc2)c1 [Example 43, [2-[(2-Cyclohexyl-ethyl)-(4-trifluoromethyl-phenyl)-amino]-6-(4-trifluoromethyl-phenyl)-pyridin-4-yl]-acetic acid]
– | 0 | CC(C)CC(C(=O)O)c1cc(-c2ccc(C(F)(F)F)cc2)nc(-c2ccc(C(F)(F)F)nc2)c1 (stereo not drawn) [Example 30, 4-Methyl-2-[6′-trifluoromethyl-6-(4-trifluoromethyl-phenyl)-[2,3′]bipyridinyl-4-yl]-pentanoic acid]

EC50 [nM] | inhibition at 1 µM [%] | Structure (SMILES)
– | 23 | C=C(C)CC(C(=O)O)c1cc(-c2ccc(C(F)(F)F)cc2)nc(-c2ccc(C(F)(F)F)cc2C(F)(F)F)c1 (stereo not drawn) [Example 16, 2-[2-(2,4-Bis-trifluoromethyl-phenyl)-6-(4-trifluoromethyl-phenyl)-pyridin-4-yl]-4-methyl-pent-4-enoic acid]
340 | – | CC(C)CC(C(=O)O)c1cc(-c2ccc(C(F)(F)F)cc2)nc(N(CC(C)C)c2ccc(C(F)(F)F)cc2)c1 (stereo not drawn) [Example 40, 2-[2-[Isobutyl-(4-trifluoromethyl-phenyl)-amino]-6-(4-trifluoromethyl-phenyl)-pyridin-4-yl]-4-methyl-pentanoic acid]
– | 0 | Cc1ccc(-c2cc(C(CC(C)C)C(=O)O)cc(-c3ccc(C(F)(F)F)cc3)n2)cc1 (stereo not drawn) [Example 11, 4-Methyl-2-[2-p-tolyl-6-(4-trifluoromethyl-phenyl)-pyridin-4-yl]-pentanoic acid]
– | 28 | CC(C)CC(C(=O)O)c1cc(-c2ccc(F)cc2)nc(-c2ccc(C(F)(F)F)cc2)c1 (stereo not drawn) [Example 2, 2-[2-(4-Fluoro-phenyl)-6-(4-trifluoromethyl-phenyl)-pyridin-4-yl]-4-methyl-pentanoic acid]
– | 19 | C=C(C)CC(C(=O)O)c1cc(-c2ccc(C(F)(F)F)cc2)nc(-c2ccc3ccccc3c2)c1 (stereo not drawn) [Example 15, 4-Methyl-2-[2-naphthalen-2-yl-6-(4-trifluoromethyl-phenyl)-pyridin-4-yl]-pent-4-enoic acid]
– | 19 | CC(C)CC(C(=O)O)c1cc(-c2ccc(C(F)(F)F)cc2)nc(-c2cc(F)ccc2F)c1 (stereo not drawn) [Example 25, 2-[2-(2,5-Difluoro-phenyl)-6-(4-trifluoromethyl-phenyl)-pyridin-4-yl]-4-methyl-pentanoic acid]
120 | – | CC(C)CC(C(=O)O)c1cc(-c2ccc(C(F)(F)F)cc2)nc(-c2cc(F)cc(C(F)(F)F)c2)c1 (stereo not drawn) [Example 8, 2-[2-(3-Fluoro-5-trifluoromethyl-phenyl)-6-(4-trifluoromethyl-phenyl)-pyridin-4-yl]-4-methyl-pentanoic acid]
– | 1 | COc1ccc(-c2cc(C(CC(C)C)C(=O)O)cc(-c3ccc(C(F)(F)F)cc3)n2)cc1 (stereo not drawn) [Example 4, 2-[2-(4-Methoxy-phenyl)-6-(4-trifluoromethyl-phenyl)-pyridin-4-yl]-4-methyl-pentanoic acid]
– | 16 | C=C(C)CC(C(=O)O)c1cc(-c2ccc(C(F)(F)F)cc2)nc(-c2cccc(-c3ccccc3)c2)c1 (stereo not drawn) [Example 34, 2-[2-Biphenyl-3-yl-6-(4-trifluoromethyl-phenyl)-pyridin-4-yl]-4-methyl-pent-4-enoic acid]
300 | – | CC(C)CCN(c1ccc(C(F)(F)F)cc1)c1cc(C(CC(C)C)C(=O)O)cc(-c2ccc(C(F)(F)F)cc2)n1 (stereo not drawn) [Example 41, 4-Methyl-2-[2-[(3-methyl-butyl)-(4-trifluoromethyl-phenyl)-amino]-6-(4-trifluoromethyl-phenyl)-pyridin-4-yl]-pentanoic acid]
– | 5 | C=C(C)CC(C(=O)O)c1cc(-c2ccc(C(F)(F)F)cc2)nc(-c2c(F)cccc2F)c1 (stereo not drawn) [Example 27, 2-[2-(2,6-Difluoro-phenyl)-6-(4-trifluoromethyl-phenyl)-pyridin-4-yl]-4-methyl-pent-4-enoic acid]
– | 9 | C=C(C)CC(C(=O)O)c1cc(-c2ccc(C(F)(F)F)cc2)nc(-c2cccc(F)c2F)c1 (stereo not drawn) [Example 20, 2-[2-(2,3-Difluoro-phenyl)-6-(4-trifluoromethyl-phenyl)-pyridin-4-yl]-4-methyl-pent-4-enoic acid]
– | 22 | CC(C)CCN(c1ccc(C(C)(C)C)cc1)c1cc(C(CC(C)C)C(=O)O)cc(-c2ccc(C(F)(F)F)cc2)n1 (stereo not drawn) [Example 46, 2-[2-[(4-tert-Butyl-phenyl)-(3-methyl-butyl)-amino]-6-(4-trifluoromethyl-phenyl)-pyridin-4-yl]-4-methyl-pentanoic acid]
380 | – | CC(C)CC(C(=O)O)c1cc(-c2ccc(OC(F)(F)F)cc2)nc(-c2ccc(C(F)(F)F)cc2)c1 (stereo not drawn) [Example 3, 4-Methyl-2-[2-(4-trifluoromethoxy-phenyl)-6-(4-trifluoromethyl-phenyl)-pyridin-4-yl]-pentanoic acid]
730 | – | CC(C)CC(C(=O)O)c1cc(-c2ccc(C(C)C)cc2)nc(-c2ccc(C(F)(F)F)cc2)c1 (stereo not drawn) [Example 9, 2-[2-(4-Isopropyl-phenyl)-6-(4-trifluoromethyl-phenyl)-pyridin-4-yl]-4-methyl-pentanoic acid]
270 | – | CC(C)CC(C(=O)O)c1cc(-c2ccc(C(F)(F)F)cc2)nc(-c2cc(C(F)(F)F)cc(C(F)(F)F)c2)c1 (stereo not drawn) [Example 6, 2-[2-(3,5-Bis-trifluoromethyl-phenyl)-6-(4-trifluoromethyl-phenyl)-pyridin-4-yl]-4-methyl-pentanoic acid]

Structure (SMILES) | EC50 [nM] | inhibition at 1 µM [%]
CC(C)COc1cccc(-c2cc(C(CC(C)C)C(=O)O)cc(-c3ccc(C(F)(F)F)cc3)n2)c1 (stereo not drawn) [Example 36, 2-[2-(3-Isobutoxy-phenyl)-6-(4-trifluoromethyl-phenyl)-pyridin-4-yl]-4-methyl-pentanoic acid] | – | 41
